“Also recorded” adds a separate entry of the source. Where two headings read alike, the source gives them in different places.
Key:
[1] = system: inflammatory MA (face CFA model); test: Face Complete Freund's Adjuvant (CFA) model of inflammatory mechanical allodynia; assay type: in vivo; conditions: rat, intracisternal 5 μL at 100 μM; for prevention of inflammatory MA (allodynic score, 6-g von Frey filament): 30 min before CFA
Description: FIG. 1 illustrates the results obtained by the intracisternal application of compounds 19-24, 66-72 and 74-82. These compounds prevent face MA in a rat model of inflammatory pain (Complete Freund's Adjuvant (CFA), n=4-6 rats for each compound). For this assay, compounds (5 μL at 100 μM) or control vehicle were intra-cisternally administred 30 min before CFA injection.
Face Complete Freund's Adjuvant (CFA) Model.
CFA (Becton Dickinson) was dissolved in saline solution containing Tween 80 and paraffin oil and conserved at 4° C. For the behavioral tests, animals were briefly (<2 min) anesthetized using a mask with 2% isoflurane and received a subcutaneous injection of 25 μL of CFA (2.5 mg/kg) solution into the right vibrissa pad using a 27 Ga needle coupled to a 25 μL Hamilton syringe, as described previously. After injection, animals were awakened from anesthesia and placed in the behavioral experimental room, followed by a 120 min mechanical testing period.
Intracisternal Injection:
For investigating the effects of synthetized compounds upon mechanical allodynia, animals were briefly (<2 min) anesthetized using a mask with 2% isoflurane and received an intracisternal injection of 5 μL of compound (100 μM) or vehicle alone (saline+1% DMSO) using a 10 μL Hamilton syringe. After recovery (<2 min), rats were placed in an observation field (0.6×0.6 m square) under red light for a period test. 6-g von Frey filament was gently applied every 15 or 30 min onto the orofacial region by a first experimenter. The behavioral responses were observed and quantified by a second experimenter (see below).
Behavioral Responses to Normally Innocuous (6-g Von Frey Filament) Mechanical Stimulation.
The behavioral responses procedure was previously developed by Vos et al. 1994. A rat's response to mechanical stimulation consisted of one or more of the following elements: (1) detection, rat turn head toward stimulus; (2) withdrawal reaction, rat pull paw away or turn head away or pull it briskly backward when stimulation is applied (a withdrawal reaction is assumed to include a detection element preceding the head withdrawal and therefore consists of two responses elements); (3) escape/attack, rats avoid further contact with the stimulus, either passively by moving their bodies away from the stimulus, or actively by attacking the tip of the […]; (4) asymmetric grooming, rats display an uninterrupted series of at least three wash strokes directed to the stimulated area.
The in vivo efficacy of some compounds was evaluated on a rat model of inflammatory MA (face CFA model; Alba-Delgado et al J. Neurosci. 2018, 38, 10489-10504) (FIG. 1). After receiving a subcutaneous injection of 25 μL of CFA (2.5 mg/kg) into the right vibrissa pad, rats develop a MA that lasts days. […] In this model of inflammatory MA, MA was suppressed in compound 69 treated rats, in comparison to animals treated with vehicle (FIG. 2A).

p38α MAPK = p38α MAPK (Homo sapiens (Human), UniProt Q16539); test: p38 alpha IC50; assay type: biochemical
Sequence of p38α MAPK (Q16539 whole entry): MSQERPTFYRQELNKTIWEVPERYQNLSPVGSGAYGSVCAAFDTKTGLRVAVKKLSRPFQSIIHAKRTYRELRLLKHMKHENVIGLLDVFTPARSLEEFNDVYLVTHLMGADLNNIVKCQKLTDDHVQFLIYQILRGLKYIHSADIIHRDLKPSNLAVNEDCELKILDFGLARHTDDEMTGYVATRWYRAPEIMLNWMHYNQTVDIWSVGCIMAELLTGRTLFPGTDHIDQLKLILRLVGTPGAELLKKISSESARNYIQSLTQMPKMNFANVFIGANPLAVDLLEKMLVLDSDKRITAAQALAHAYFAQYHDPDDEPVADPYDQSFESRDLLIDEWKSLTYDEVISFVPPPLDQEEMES
Description: (§1) Studies were undertaken to identify the possible biological target(s) of compound 69. The activation in neurons of PK such as PKCγ, ERK or p38 MAPK can contribute to pain hypersensitivity. Therefore, it was decided to screen compound 69 toward a panel of 50 PKs that provide a representative sampling of the human kinome (FIG. 3, Table 3) (Biochem. J. 2007, 408, 297-315). In this panel, p38α MAPK was identified as the privileged target, with 19% of kinase residual activity at 10 μM compound concentration.
(§2) The selectivity of compound 69 was evaluated at 1 μM toward another panel containing all four p38 MAPK isoforms, ERK1, ERK2 as well as other protein kinases close to p38α MAPK in the kinome phylogenetic tree (FIG. 4, Table 4). […] Its IC50 toward p38α MAPK was determined, showing a value in the micromolar range (IC50=3.0±0.1 μM).

JNK1 = JNK1 (Homo sapiens (Human), UniProt P45983); test: ICKP protein kinase panel screening; assay type: biochemical; conditions: 1 μM, duplicate assays, read-out: mean % residual activity
Sequence of JNK1 (P45983 whole entry): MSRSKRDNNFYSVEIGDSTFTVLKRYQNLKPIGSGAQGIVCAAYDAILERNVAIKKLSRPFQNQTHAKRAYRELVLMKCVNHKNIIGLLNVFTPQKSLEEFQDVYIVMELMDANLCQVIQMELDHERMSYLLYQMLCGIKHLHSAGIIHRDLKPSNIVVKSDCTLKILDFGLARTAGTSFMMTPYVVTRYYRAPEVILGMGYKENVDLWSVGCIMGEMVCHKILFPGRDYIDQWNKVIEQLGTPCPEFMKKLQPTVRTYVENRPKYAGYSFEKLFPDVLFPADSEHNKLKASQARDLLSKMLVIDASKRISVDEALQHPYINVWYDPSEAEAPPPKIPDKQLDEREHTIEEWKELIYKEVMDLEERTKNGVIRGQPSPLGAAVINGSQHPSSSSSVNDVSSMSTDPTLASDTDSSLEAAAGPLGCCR
Description: (§3) FIG. 3 illustrates the human kinome. Compound 69 was evaluated at the International Center For Kinase Profiling (ICKP, Dundee, Scotland) toward a panel of 50 protein kinases that provide a representative sampling of the human kinome. The results were expressed as the mean percentage of residual activity at 10 μM concentration (duplicate assays). Small disks: ≥65%, larger disk: 19%. The black square indicates the kinome region containing protein kinases evaluated in a second screening (FIG. 4, Table 4). The tree was generated using the Kinome Render software, and the illustration reproduced courtesy of Cell Signaling Technology, Inc. (www.cellsignal.com) Chartier et al PeerJ 2013, 1:e126.
(§4) FIG. 4 illustrates the studies carried out for compounds 67 and 69. Compounds 67 and 69 (FIG. 4B) were evaluated at the International Center For Kinase Profiling (ICKP, Dundee, Scotland) toward a panel of 13 protein kinases. The results (FIG. 4A) were expressed as the mean percentage of residual activity at 1 μM concentration (duplicate assays). Small disks: ≥90%, larger disk: 59%, for both compounds. The tree was generated using the Kinome Render software, and the illustration reproduced courtesy of Cell Signaling Technology, Inc. (www.cellsignal.com) Chartier et al PeerJ 2013, 1:e126.
(§5) Results are expressed as the mean percentage of residual activity at 10 μM (Table 3) or 1 μM (Table 4). They are illustrated on FIGS. 3 and 4.
as §1, §2

p38a MAPK = p38a MAPK (Homo sapiens (Human), UniProt Q16539); test: ICKP protein kinase panel screening; assay type: biochemical; conditions: 1 μM, duplicate assays, read-out: mean % residual activity
Sequence of p38a MAPK (Q16539 whole entry): as the sequence (Q16539 whole entry) above
Description: as §3, §4, §5, §1, §2

CDK2-Cyclin A = CDK2-Cyclin A (Homo sapiens (Human), UniProt P24941); test: ICKP protein kinase panel screening; assay type: biochemical; conditions: duplicate assays, read-out: mean % residual activity
Description: as §4, §5, §2

CDK5 = CDK5 (Homo sapiens (Human), UniProt Q00535); test: ICKP protein kinase panel screening; assay type: biochemical; conditions: duplicate assays, read-out: mean % residual activity
Sequence of CDK5 (Q00535 whole entry): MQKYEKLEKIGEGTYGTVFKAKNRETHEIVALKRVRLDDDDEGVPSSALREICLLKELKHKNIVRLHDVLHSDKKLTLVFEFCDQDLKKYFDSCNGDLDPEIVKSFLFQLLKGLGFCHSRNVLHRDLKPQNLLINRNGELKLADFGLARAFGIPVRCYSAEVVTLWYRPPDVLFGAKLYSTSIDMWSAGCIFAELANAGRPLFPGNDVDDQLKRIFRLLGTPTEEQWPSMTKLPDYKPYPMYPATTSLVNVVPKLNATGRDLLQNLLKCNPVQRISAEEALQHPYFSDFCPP
Sequence of CDK5 (Q15078 whole entry partner): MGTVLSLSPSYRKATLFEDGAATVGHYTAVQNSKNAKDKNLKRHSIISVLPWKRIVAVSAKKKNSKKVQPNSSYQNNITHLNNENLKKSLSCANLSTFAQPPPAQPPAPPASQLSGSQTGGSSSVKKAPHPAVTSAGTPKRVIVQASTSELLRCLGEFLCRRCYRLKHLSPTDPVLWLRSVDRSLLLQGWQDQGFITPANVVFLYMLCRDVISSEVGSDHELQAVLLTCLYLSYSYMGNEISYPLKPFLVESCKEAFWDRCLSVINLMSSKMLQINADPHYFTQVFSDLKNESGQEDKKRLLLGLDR
Description: as §4, §5, §2

ERK1 = ERK1 (Homo sapiens (Human), UniProt P27361); test: ICKP protein kinase panel screening; assay type: biochemical; conditions: duplicate assays, read-out: mean % residual activity
Sequence of ERK1 (P27361 whole entry): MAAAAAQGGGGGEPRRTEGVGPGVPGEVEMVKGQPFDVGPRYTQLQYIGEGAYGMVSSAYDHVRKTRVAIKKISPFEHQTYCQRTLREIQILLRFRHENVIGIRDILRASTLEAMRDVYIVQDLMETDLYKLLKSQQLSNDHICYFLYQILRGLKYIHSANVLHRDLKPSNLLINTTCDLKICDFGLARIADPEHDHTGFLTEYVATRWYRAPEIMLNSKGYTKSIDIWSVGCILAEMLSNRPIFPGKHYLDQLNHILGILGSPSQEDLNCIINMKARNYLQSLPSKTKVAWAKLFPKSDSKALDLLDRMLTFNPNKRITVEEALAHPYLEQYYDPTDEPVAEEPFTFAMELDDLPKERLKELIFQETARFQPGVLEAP
Description: as §4, §5, §2

ERK2 = ERK2 (Homo sapiens (Human), UniProt P28482); test: ICKP protein kinase panel screening; assay type: biochemical; conditions: duplicate assays, read-out: mean % residual activity
Sequence of ERK2 (P28482 whole entry): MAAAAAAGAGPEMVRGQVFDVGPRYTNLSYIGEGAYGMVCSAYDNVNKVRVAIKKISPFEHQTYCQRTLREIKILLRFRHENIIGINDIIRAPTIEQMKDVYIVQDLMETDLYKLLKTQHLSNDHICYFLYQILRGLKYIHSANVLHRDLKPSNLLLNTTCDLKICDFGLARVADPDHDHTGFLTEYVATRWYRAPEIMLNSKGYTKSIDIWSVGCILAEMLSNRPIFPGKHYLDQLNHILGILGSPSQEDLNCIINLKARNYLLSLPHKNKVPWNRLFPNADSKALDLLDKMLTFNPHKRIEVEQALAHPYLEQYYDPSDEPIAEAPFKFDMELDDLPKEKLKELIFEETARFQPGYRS
Description: as §4, §5, §2

ERK5 = ERK5 (Homo sapiens (Human), UniProt Q13164); test: ICKP protein kinase panel screening; assay type: biochemical; conditions: duplicate assays, read-out: mean % residual activity
Sequence of ERK5 (Q13164 whole entry): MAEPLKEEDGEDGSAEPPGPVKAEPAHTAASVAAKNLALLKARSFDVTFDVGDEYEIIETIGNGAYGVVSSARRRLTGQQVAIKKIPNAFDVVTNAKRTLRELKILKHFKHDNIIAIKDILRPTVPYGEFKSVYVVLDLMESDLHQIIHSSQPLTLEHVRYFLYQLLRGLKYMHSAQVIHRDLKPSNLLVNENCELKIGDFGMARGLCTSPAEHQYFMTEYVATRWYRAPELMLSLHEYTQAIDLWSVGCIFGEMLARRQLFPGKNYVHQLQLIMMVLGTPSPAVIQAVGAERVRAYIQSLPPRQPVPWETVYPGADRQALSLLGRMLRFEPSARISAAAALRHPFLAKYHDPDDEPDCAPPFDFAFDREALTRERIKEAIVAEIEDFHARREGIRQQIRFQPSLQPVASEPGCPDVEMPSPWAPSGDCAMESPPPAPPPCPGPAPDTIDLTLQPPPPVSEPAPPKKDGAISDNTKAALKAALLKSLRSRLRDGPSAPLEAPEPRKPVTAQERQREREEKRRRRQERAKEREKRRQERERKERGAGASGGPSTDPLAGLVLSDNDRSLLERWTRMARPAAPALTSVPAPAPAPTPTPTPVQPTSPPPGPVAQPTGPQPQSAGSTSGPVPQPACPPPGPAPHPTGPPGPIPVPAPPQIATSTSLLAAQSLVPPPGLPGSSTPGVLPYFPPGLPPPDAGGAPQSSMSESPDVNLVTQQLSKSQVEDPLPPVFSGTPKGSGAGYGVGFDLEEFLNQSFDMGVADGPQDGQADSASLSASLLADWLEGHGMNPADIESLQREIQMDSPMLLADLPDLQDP
Description: as §4, §5, §2

ERK8 = ERK8 (Homo sapiens (Human), UniProt Q8TD08); test: ICKP protein kinase panel screening; assay type: biochemical; conditions: duplicate assays, read-out: mean % residual activity
Sequence of ERK8 (Q8TD08 whole entry): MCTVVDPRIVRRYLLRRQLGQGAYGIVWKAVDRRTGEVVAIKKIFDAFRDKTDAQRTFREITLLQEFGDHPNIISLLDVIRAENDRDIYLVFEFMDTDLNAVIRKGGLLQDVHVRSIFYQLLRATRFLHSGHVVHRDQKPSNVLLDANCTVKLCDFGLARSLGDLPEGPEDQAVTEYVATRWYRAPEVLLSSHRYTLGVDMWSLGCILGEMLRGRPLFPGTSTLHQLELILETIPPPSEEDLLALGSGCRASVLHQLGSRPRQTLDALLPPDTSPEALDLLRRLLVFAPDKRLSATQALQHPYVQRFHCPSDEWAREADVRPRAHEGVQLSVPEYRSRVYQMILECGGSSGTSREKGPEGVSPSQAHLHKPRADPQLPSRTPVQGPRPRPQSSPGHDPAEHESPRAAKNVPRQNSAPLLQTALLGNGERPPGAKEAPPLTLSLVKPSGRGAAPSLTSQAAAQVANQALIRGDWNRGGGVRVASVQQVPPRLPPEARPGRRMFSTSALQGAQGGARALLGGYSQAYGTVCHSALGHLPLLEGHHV
Description: as §4, §5, §2

JNK2 = JNK2 (Homo sapiens (Human), UniProt P45984); test: ICKP protein kinase panel screening; assay type: biochemical; conditions: duplicate assays, read-out: mean % residual activity
Sequence of JNK2 (P45984 whole entry): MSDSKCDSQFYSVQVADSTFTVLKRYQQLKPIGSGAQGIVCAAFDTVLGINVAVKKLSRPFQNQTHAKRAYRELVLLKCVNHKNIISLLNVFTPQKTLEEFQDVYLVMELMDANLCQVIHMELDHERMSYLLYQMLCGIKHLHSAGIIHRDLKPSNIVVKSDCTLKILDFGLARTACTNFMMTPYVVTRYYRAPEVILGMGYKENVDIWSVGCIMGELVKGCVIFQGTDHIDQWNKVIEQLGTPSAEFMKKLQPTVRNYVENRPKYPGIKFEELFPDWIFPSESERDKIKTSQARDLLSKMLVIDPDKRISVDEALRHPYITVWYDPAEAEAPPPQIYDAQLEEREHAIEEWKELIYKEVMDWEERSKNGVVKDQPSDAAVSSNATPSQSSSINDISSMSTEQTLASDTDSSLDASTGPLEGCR
Description: as §4, §5, §2

JNK3 = JNK3 (Homo sapiens (Human), UniProt P53779); test: ICKP protein kinase panel screening; assay type: biochemical; conditions: duplicate assays, read-out: mean % residual activity
Description: as §4, §5, §2

p38b MAPK = p38b MAPK (Homo sapiens (Human), UniProt Q15759); test: ICKP protein kinase panel screening; assay type: biochemical; conditions: duplicate assays, read-out: mean % residual activity
Sequence of p38b MAPK (Q15759 whole entry): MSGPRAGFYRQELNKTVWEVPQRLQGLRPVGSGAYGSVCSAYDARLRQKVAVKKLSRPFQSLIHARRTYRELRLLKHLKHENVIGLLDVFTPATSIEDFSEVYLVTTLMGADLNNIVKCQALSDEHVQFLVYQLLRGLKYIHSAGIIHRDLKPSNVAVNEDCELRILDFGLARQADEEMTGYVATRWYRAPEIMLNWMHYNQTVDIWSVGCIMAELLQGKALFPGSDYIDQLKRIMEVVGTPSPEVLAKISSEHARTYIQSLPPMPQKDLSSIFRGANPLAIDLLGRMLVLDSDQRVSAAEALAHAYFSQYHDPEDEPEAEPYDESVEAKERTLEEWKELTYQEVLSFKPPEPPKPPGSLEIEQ
Description: as §4, §5, §2

p38d MAPK = p38d MAPK (Homo sapiens (Human), UniProt O15264); test: ICKP protein kinase panel screening; assay type: biochemical; conditions: duplicate assays, read-out: mean % residual activity
Description: as §4, §5, §2

p38g MAPK = p38g MAPK (Homo sapiens (Human), UniProt P53778); test: ICKP protein kinase panel screening; assay type: biochemical; conditions: duplicate assays, read-out: mean % residual activity
Sequence of p38g MAPK (P53778 whole entry): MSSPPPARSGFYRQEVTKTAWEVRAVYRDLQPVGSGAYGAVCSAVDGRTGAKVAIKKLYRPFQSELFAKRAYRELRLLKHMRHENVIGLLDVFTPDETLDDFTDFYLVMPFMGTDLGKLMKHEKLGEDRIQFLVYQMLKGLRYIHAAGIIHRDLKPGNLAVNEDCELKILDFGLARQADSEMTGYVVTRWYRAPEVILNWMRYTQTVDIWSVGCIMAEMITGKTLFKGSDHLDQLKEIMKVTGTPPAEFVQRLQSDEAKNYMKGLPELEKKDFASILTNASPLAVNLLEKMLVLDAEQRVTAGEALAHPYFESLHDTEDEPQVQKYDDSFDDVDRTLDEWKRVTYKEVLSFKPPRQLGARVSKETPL
Description: as §4, §5, §2

[2] = system: panel of 13 protein kinases; test: ICKP screening, whole panel of 13 protein kinases; assay type: biochemical, human; conditions: 1 μM
Description: as §4, §5, §2

O=c1[nH]cc(Nc2ccccc2)cc1-c1ccncc1 [Compound 21, 5-(Phenylamino)-[3,4′-bipyridin]-2(1H)-one]
prevention of inflammatory MA (allodynic score, 6-g von Frey filament) [1]: comparable gains of activity

O=c1[nH]cc(Nc2ccccc2)cc1-c1cccc2cccnc12 [Compound 23, 5-(Phenylamino)-3-(quinolin-8-yl)pyridin-2(1H)-one]
prevention of inflammatory MA (allodynic score, 6-g von Frey filament) [1]: prevented the development of inflammatory MA

O=c1[nH]cc(Nc2ccccc2)cc1-c1cncnc1 [Compound 24, 5-(Phenylamino)-3-(pyrimidin-5-yl)pyridin-2(1H)-one]
prevention of inflammatory MA (allodynic score, 6-g von Frey filament) [1]: prevented the development of inflammatory MA

O=c1[nH]cc(Nc2ccccc2)cc1-c1cccc2[nH]ccc12 [Compound 67, 3-(1H-Indol-4-yl)-5-(phenylamino)pyridin-2(1H)-one]
IC50 (p38α MAPK; p38 alpha, read-out: Mean IC50): 3.03 µM | IC50 (p38α MAPK; read-out: IC50 toward p38α MAPK): 3 ± 0.1 µM | remaining activity at 1 µM (JNK1): 94% | remaining activity at 1 µM (p38a MAPK): 59% | remaining activity at 1 µM (CDK2-Cyclin A): 111% | remaining activity at 1 µM (CDK5): 101% | remaining activity at 1 µM (ERK1): 122% | remaining activity at 1 µM (ERK2): 108% | remaining activity at 1 µM (ERK5): 113% | remaining activity at 1 µM (ERK8): 128% | remaining activity at 1 µM (JNK2): 103% | remaining activity at 1 µM (JNK3): 98% | remaining activity at 1 µM (p38b MAPK): 112% | remaining activity at 1 µM (p38d MAPK): 113% | remaining activity at 1 µM (p38g MAPK): 107% | mean percentage of residual activity, other kinases of the panel (small disks) ([2]; all kinases except p38α MAPK): ≥ 90% | selectivity for p38α MAPK over the other protein kinases incl. p38 isoforms ([2]; panel of 13 kinases): same selectivity profile; also recorded: selective p38α MAPK inhibitor | prevention of inflammatory MA (allodynic score, 6-g von Frey filament) [1]: strong anti-allodynic activity; also recorded: most active | inhibition of inflammatory MA ([1]; 30 min before CFA injection): 98%

CCOC(=O)c1ccccc1-c1cc(Nc2ccccc2)c[nH]c1=O [Compound 70, Ethyl 2-(2-oxo-5-(phenylamino)-1,2-dihydropyridin-3-yl)benzoate]
prevention of inflammatory MA (allodynic score, 6-g von Frey filament) [1]: high activities

O=c1[nH]cc(Nc2ccccc2)cc1-c1ccccc1[N+](=O)[O-] [Compound 72, 3-(2-Nitrophenyl)-5-(phenylamino)pyridin-2(1H)-one]
prevention of inflammatory MA (allodynic score, 6-g von Frey filament) [1]: prevented the development of inflammatory MA

CC(=O)c1cccc(-c2cc(Nc3ccccc3)c[nH]c2=O)c1 [Compound 75, 3-(3-Acetylphenyl)-5-(phenylamino)pyridin-2(1H)-one]
prevention of inflammatory MA (allodynic score, 6-g von Frey filament) [1]: prevented the development of inflammatory MA

Cc1ccc(-c2cc(Nc3ccccc3)c[nH]c2=O)cc1 [Compound 77, 5-(Phenylamino)-3-(p-tolyl)pyridin-2(1H)-one]
prevention of inflammatory MA (allodynic score, 6-g von Frey filament) [1]: prevented the development of inflammatory MA; also recorded: comparable gains of activity

O=c1[nH]cc(Nc2ccccc2)cc1-c1ccc(OC(F)(F)F)cc1 [Compound 79, 5-(Phenylamino)-3-(4-(trifluoromethoxy)phenyl)pyridin-2(1H)-one]
prevention of inflammatory MA (allodynic score, 6-g von Frey filament) [1]: prevented the development of inflammatory MA

NC(=O)c1ccc(-c2cc(Nc3ccccc3)c[nH]c2=O)cc1 [Compound 81, 4-(2-Oxo-5-(phenylamino)-1,2-dihydropyridin-3-yl)benzamide]
prevention of inflammatory MA (allodynic score, 6-g von Frey filament) [1]: prevented the development of inflammatory MA

O=c1[nH]cc(Nc2ccccc2)cc1-c1ccc(F)cc1F [Compound 82, 3-(2,4-Difluorophenyl)-5-(phenylamino)pyridin-2(1H)-one]
prevention of inflammatory MA (allodynic score, 6-g von Frey filament) [1]: prevented the development of inflammatory MA

Reference: patent US12351556B2, “Pyridin-2(1H)one derivatives, their preparation and their use for the treatment of pain” (INSTITUT NATIONAL DE LA SANTE ET DE LA RECHERCHE MEDICALE …, priority 2019, dated 2025)
